Here are results for five substances from patent US20160002315A1, “APOLIPOPROTEIN MIMETICS AND USES THEREOF” (UAB RESEARCH FOUNDATION, priority 2013, published 2016).

One test deals with VLDL. Particulars: peptide interacting with VLDL; cited from earlier work.
A further test deals with cells. Particulars: peptide-associated VLDL, absence of apoE; cited from earlier work.
Test [1] deals with Apo E −/− mice. Briefly: Study Two: plaques in the aorta of Apo E -/- mice. Type of test: in vivo. Particulars: 5 mg/kg. How it is done: (§1) The mice were fed a lard diet for seven weeks and then were switched to a chow diet for four weeks. The mice were treated two times a week for four weeks and then treatment was withdrawn for four weeks. Termination 1 represents the time point immediately following termination of the Apo E mimetic treatment. Termination 2 represents the time point immediately following the four weeks of treatment withdrawal. Lipids were analyzed in the plasma (cholesterol, triglycerides) and in the liver (cholesterol esters, unesterified cholesterol, triglycerides).

For test [2], the system named is Apo E null mice. Kind of test: Study One: plasma markers of oxidative stress (ROS, PON activity) in Apo E null mice. The test is classed as in vivo. The protocol:
(§2) The mice were fed a Western diet for 6 weeks to elevate cholesterol. The animals were then switched to a chow diet for two weeks after which they were treated with peptide or saline for 4 weeks. Treatment was then withdrawn for 4 weeks while the animals remained on a chow diet. After the 4 week post treatment phase, the mice were euthanized and tissue dissection and sample collection was performed.
(§3) Blood was drawn after 4 weeks of treatment at week 26 and analyzed for cholesterol. […] However, Apo E mimetic treatment did improve plasma marker of oxidative stress, such as ROS and PON activity. […] Because ROS have been implicated in the pathogenesis of atherosclerosis, the decrease in ROS by treatment with an Apo E mimetic is beneficial.
The PON gene family has anti-atherosclerotic effects, such as preventing oxidation of LDLs. Thus, the increase in PON activity in hE18A treated mice is beneficial in the atherosclerosis animal model.
(§4) The mice were euthanized at week 30, which is four weeks post treatment with Apo E mimetic.

Test [3] concerns Apo E −/− mice. Kind of test: Study Two: plasma and liver lipids in Apo E -/- mice. The test is classed as in vivo. Particulars: four weeks after cessation of treatment. The protocol: as §1
The test system of test [4] is Apo E null mice. Kind of test: Study One: plasma cholesterol and triglycerides in Apo E null mice. The test is classed as in vivo. How it is done:
as §2, §3, §4

Test [5] has as its system Apo E null mice. Kind of test: Study One: atherosclerotic lesions (en face aorta, aortic sinus, macrophage coverage) in Apo E null mice. Type of test: in vivo. The protocol:
as §2, §4

The subject of a further test is MEF 1 cells. Particulars: MEF 1 cells with induced LDL receptors; cited from earlier work.
The mark [6] stands for this setting: four weeks after the end of treatment.
[7] abbreviates: 4 weeks post treatment (study termination).

Turning to “Ac-D-W-L-K-A-F-Y-D-K-V-A-E-K-L-K-E-A-F-NH2 (Ac-DWLKAFYDKVAEKLKEAF-NH2) [Ac-18A-NH2, control peptide, reference compound]”, the “displacement of apo E from VLDL” value in the test with VLDL is “displacement of apo E from VLDL”.
For “Ac-LRKLRKRLLRDWLKAFYDKVAEKLKEAF-NH2 [Ac-hE18A-NH2, end protected analog of hE-18A]”, in the test with cells, the “enhancement of degradation of VLDL compared to VLDL alone” value was “three” and the “enhancement of uptake of VLDL compared to VLDL alone” value is reported as “six”. Besides, the “displacement of apo E from VLDL” value in the test on VLDL is recorded as “displacement of apo E from VLDL”. In addition, the “decrease of atherosclerotic lesions in the thoracic aorta” value with Apo E −/− mice [1] is on record as “about 50%”. For the same substance, the “reduction of lesions in the aortic arch” value with Apo E −/− mice [1] (at the end of treatment) is on record as “about 35%”. Further, in the test with Apo E null mice [2] (Apo E null mice, HDL fractions 29-32), the “PON-1 levels in HDL fractions” value is on record as “dramatic increase”. In addition, the cholesterol levels result in the test with Apo E −/− mice [3] was “about 650 mg/dl”.
Turning to “LRKLRKRLLRDWLKAFYDKVAEKLKEAF (ApoE mimetic) [hE18A]”, the PON-1 activity result in the test with Apo E null mice [2] (4 weeks post treatment, over saline and mR18L) was “still increased”. Moreover, the “reactive oxygen species (ROS)” value with Apo E null mice [2] (after 4 weeks of treatment, compared to saline) is “significant decrease”. The “paraoxonase (PON) activity” value in the test with Apo E null mice [2] (after 4 weeks of treatment, compared to saline and mR18L) is “significant increase”. For the same substance, the ROS levels result in the test on Apo E null mice [2] (setting [6]) is “not significantly different”. Also, in the test on Apo E null mice [4] (end of 4 weeks of treatment, compared to mR18L and saline), the plasma cholesterol levels result is on record as “better in reducing plasma cholesterol levels”. Besides, in the test on Apo E null mice [4] (setting [6]), the cholesterol levels result was “not significantly different”. Besides, in the test on Apo E null mice [5] (setting [7]), the “atherosclerotic lesion area in the aortic sinus” value was “significantly decreased” and the “macrophage coverage of the aortic sinus” value is listed as “non-significant trend towards a decrease”. Besides, in the test on Apo E null mice [5] (4 weeks post treatment, compared to saline or mR18L), the “atherosclerotic lesion area (en face aorta)” value is given as “significantly reduced”.
In the case of LRKMRKRLMR-18A [Ac-mE-18A-NH2], the “enhancement of LDL internalization” value in the test on MEF 1 cells is given as “three”.
For LRRLRRRLLR-18A [Ac-hE(R)-18A-NH2], the “enhancement of LDL internalization” value in the test on MEF 1 cells was “seven”.
